Test results as given in patent US8791155B2, “Chroman derivatives” (Edison Pharmaceuticals, Inc., priority 2003, dated 2014).

Key:
Assay type in all cases: cell-based
[1] = system: FRDA fibroblasts; test: FRDA fibroblast assay for protection from oxidative stress (BSO); conditions: Homo sapiens, preincubation 24 h before 1 mM BSO, read-out: EC50, reduced cell death in FRDA fibroblasts compared to untreated FRDA fibroblasts
Source text: A cellular assay using FRDA-patient derived fibroblasts (as described by Jauslin, M L et al, Human Molecular Genetics 11; 3055-3063 (2002)); was used to determine the protective effects of the test compounds by analyzing survival of dermal fibroblasts taken from FRDA patients and unaffected normal donors under conditions of partial GSH depletion. Exposure of FRDA fibroblasts to BSO (L-buthionine (S,R)-sulfoximine) under conditions of restricted selenium causes depletion of cellular glutathione (GSH) and severe plasma membrane damage leading to cell death. Preincubation with the test compounds before the addition of BSO was used to determine if they could protect FRDA cells from BSO-mediated cell death.
Primary fibroblasts were derived from donors with a molecular diagnosis of FRDA and control donors with no mitochondria) disease. Lines F2, C2 and C3 were obtained from Coriell Cell Repositories (Camden, N.J., USA; catalog nos GM04078, GM 08402 and GM08399, respectively). All cell types were diagnosed at the molecular level for intronic GAA triplet repeat length in the frataxin gene using a PCR-based method, according to methods known in the art. […] The cells were seeded in 96-well plates at a density of 4000 cells per 100 pI in growth medium consisting of 25% (v/v) M199 EBS and 64% (v/v) MEM EBS without phenol red (Bioconcept, Allschwil, Switzerland) supplemented with 10% (v/v) fetal calf serum (PAA Laboratories, Linz, Austria), 100 U/ml penicillin, 100 μg/ml streptomycin (PAA Laboratories, Linz, Austria), 10 μg/ml insulin (Sigma, Buchs, Switzerland), 10 ng/ml EGF (Sigma, Buchs, Switzerland), 10 ng/ml bFGF (PreproTech, Rocky Hill, N.J., USA) and 2 mM glutamine (Sigma, Buchs, Switzerland). The cells were incubated in the presence of the various test compounds for 24 h before addition of 1 mM BSO (L-buthionine (S,R)-sulfoximine).
Cell viability was measured after the first signs of toxicity appeared in the BSO-treated controls (typically after 16-48 h). The cells were stained for 60 min at room temperature in PBS with 1.2 μm calceinAM and 4 pm ethidium homodimer (Live/Dead assay, Molecular Probes, Eugene, Oreg., USA). Fluorescence intensity was measured with a Gemini Spectramax XS spectrofluorimeter (Molecular Devices, Sunnyvale, Calif., USA) using excitation and emission wavelengths of 485 and 525 nm, respectively.

[2] = system: dopaminergic neuronal cell line; test: High glutamate-induced oxidative stress assay (HGOS); conditions: Mus musculus; 30 mM glutamate, 16 hrs; read-out: EC50, protection against HGOS cell injury and cell death
Source text: Protection against redox stress can be evaluated in cell culture using high glutamate induced oxidative stress (HGOS) in mouse dopaminergic cell lines. The cytotoxic effect of glutamate is not due to excitotoxicity, as this cell line is devoid of inotropic glutamate receptors. Rather, the glutamate-induced toxicity of dopaminergic cells is associated with an inhibition of cystine transport which subsequently leads to depletion of intracellular glutathione (GSH) levels (Murphy T. H., et al. Neuron 2, 1547-1558, 1989), activation of neuronal 12-lipoxygenase (Li, Y. et al., Neuron 19, 453-463, 1997), increased ROS production (Tan S. et al., J. Cell Biol. 141, 1423-1432, 1998) and elevated intracellular Cat^2+ (Li, Y. et al., see supra). Some molecules were measured for their ability to protect cells against glutamate-induced stress and the assay is detailed in Examples.
This procedure was used to induce high glutamate-induced oxidative stress (HGOS) in a dopaminergic neuronal cell line. Using this assay the potency and efficacy of test articles against HGOS neuronal cell injury and cell death was established in a high throughput manner.
• Dopaminergic neuronal cell lines • DMEM-No Glucose (Life Technologies Cat #11966-025) • L-glutamine (Life Technologies Cat #25030-081) • L-glutamic acid, monosodium salt (Sigma Cat #G5889) • D-glucose (Sigma Cat #G-6151) • 10×HBSS buffer (pH 7.4) (950 ml Pyrogen-free water, 2.44 g/L MgCl2.6H20, 3.73 g/L KCl, 59.58 g/L Hepes, 58.44 g/L NaCl, 1.36 g/L KH2PO4, 1.91 g/L CaCl2.2H2O and pH to […] with HCl) • Cell Tracker Green fluorescent dye (Molecular Probes, Cat #2925). Prepare a 5NM solution in pre-warmed HBSS just prior to use. • Sterile 96-well plates precoated with poly-D-lysine (Corning Catalog #3665) • 96-well deep well mother plate, DyNA Block 1000 (VWR Catalog #40002-008) Neuronal Cells
The cells were seeded into 96-well plates at a density of 2000 per well and left to grow for 72 hours in a 33° C. incubator with 5% CO2 in air atmosphere. The passage number of the cells for each assay experiment were no later than p11 in order to minimize experimental variation.
All compounds were dissolved in DMEM-No Glu containing 1 mM glucose, 30 mM glutamate and 1× Pen/Strep. DMEM-No Glu with 1 mM glucose and 1× P/S was used as the negative control, DMEM-No Glucose with 1 mM glucose, […] glutamate was used as a positive control and 100 NM Glutathione was added to the positive control as a standard. All of the procedures for this involving the making and dilution of compounds were performed using aseptic conditions and with minimal light.
The plates were removed from the incubator and examined under the microscope for morphological appearance and density. Using an aseptic technique and an 8-channel aspirator the media was carefully removed from the cells and replaced with 200 μI of 1×HBSS. This was done as quickly as possible to prevent the cells drying out. The plates were then placed in the humidified 37° C. incubators of the Biomek 2000 Side Loader. Four plates were washed at a time so as to minimize the time that the cells were sitting in 1×HBSS prior to addition of the compound test solution. Experimental Setup
The Beckman Biomek workstations were used to load the compounds and controls from the mother plates onto the cell plates that were prewashed with HBSS under sterile conditions. The plates were incubated in the upper HTS incubator at 37° C. in 5% CO2 for exactly 16 hrs. The following day, using the Beckman Biomek workstations, the plates were removed from the incubator. Using Cell Tracker Addition, the compounds were removed from the plates, washed once with […] of pre-warmed 1×HBSS and then 100 μL of 5 μM Cell Tracker Green was added to each well. The plates were incubated at 37° C. for 30 min to allow the dye to enter the cell and be cleaved by the esterases. […]

[3] = system: IL-1β release from a mouse microglial cell line; test: Interleukin-1β microglial cell assay (LPS / IFN gamma); conditions: LPS (10 μg/ml) and IFN gamma (10 ng/ml), 24 hours, read-out: EC50, inhibition of IL-1 beta induction
Procedure: This assay measures the release of IL-1β from a mouse microglial cell line following an inflammatory challenge with LPS and interferon-gamma. The ability of test articles to inhibit microglial cell activation and IL-1β release is determined by co-incubation of the test article with the inflammatory challenge.
Mouse microglial cells were seeded in poly-D-lysine coated 96-well plates at a density of 10,000 cells/well and allowed to attach for 24 hours. Cells were stimulated by addition of LPS (10 μg/ml) and IFN gamma (10 ng/ml) in the presence or absence of test article. The cells were then incubated for 24 hours at 37° C., after which time the media was removed and used for cytokine determination as described below.
Viability of mouse microglial cells after exposure to the test article was determined using a fluorescent viability dye, Cell Tracker Green. Cell Tracker Green was used at a working concentration of 5 μM in 1×HBSS. Cells were washed once with HBSS (200 μl/well) and 100 μl Cell Tracker Green was added to each well. Cells were then incubated at 37° C. for 30 minutes, after which time the Cell Tracker was removed and the cells were washed once with HBSS (200 μl/well). 100 pl fresh HBSS was added to each well and the plate was read on a Fluoroskan plate reader using an excitation wavelength of 485 nm and an emission wavelength of 538 nm.
1. […]
• The Costar EIA Hi-binding plate was coated with capture antibody at 4 μg/ml. […] Each well was filled to the top, dispensed, and any remaining buffer was removed by inverting the plate and gently blotting against clean paper towels. • Non-specific binding sites were blocked by adding 300 μl of Blocking Buffer to each well, and after sealing incubating for at least 1 hour at room temperature. • After washing the plate was now ready for the samples. […] 100 μl of this Substrate Solution mixture was added to each well and the plate was incubated in the dark for 20 minutes at room temperature. • 50 μl of Stop Solution was added to each well, mixing was ensured by gently tapping. • Each plate was read with the Spectramax once at 450 nm. […]

EC50 [3] | Structure (SMILES) | EC50 [1] | EC50 [2]
– | CCCCCCSCc1c(O)c(C)c(C)c2c1CCC(C)(C)O2 [5-Hexylsulfanylmethyl-2,2,7,8-tetramethyl-chroman-6-ol] | 0.01 to 6 µM | < 5 µM
– | Cc1c(C)c2c(c(CSCC(C)C(=O)N3CCCC3C(=O)O)c1O)CCC(C)(CCCC(C)CCCC(C)CCCC(C)C)O2 (centres unmarked) [1-{3-[6-Hydroxy-2,7,8-trimethyl-2-(4,8,12-trimethyl-tridecyl)-chroman-5-ylmethylsulfanyl]-2-methyl-propionyl}-pyrrolidine-2-carboxylic acid] | 0.01 to 6 µM | < 5 µM
≤ 20 µM | Cc1cc(C)nc(SCc2c(O)c(C)c(C)c3c2CCC(C)(C)O3)n1 [5-(4,6-Dimethyl-pyrimidin-2-ylsulfanylmethyl)-2,2,7,8-tetramethyl-chroman-6-ol] | – | < 5 µM
– | Cc1c(C)c2c(c(CSC3CCCC3)c1O)CCC(C)(C)O2 [5-Cyclopentylsulfanylmethyl-2,2,7,8-tetramethyl-chroman-6-ol] | 0.01 to 6 µM | < 5 µM
